Experimental data as given in patent US10806794B2, “Protease inhibitors having enhanced features” (priority 2008, dated 2020).
Read-outs that look alike come from different tables or passages of the source.

Columns and labels:
[1] = system: human liver microsomal proteins; assay: Microsomal protein binding by equilibrium dialysis; format: in vitro ADME; conditions: human liver microsomes, 3 μM, fraction unbound
Description: PEGylated protease inhibitors were evaluated for their propensity to be bound by proteins in normal human plasma or in human liver microsome preparations using equilibrium dialysis analysis. For microsomal protein binding, test compound (final concentration=3 μM) was diluted into either buffer alone or buffer containing human liver microsomes. The protein-free and microsome-containing solutions were then added to either side of an equilibrium dialysis system and allowed to reach equilibrium at 37° C. The concentration of compound on both sides of the membrane at equilibrium was quantified by LC-MS/MS, and the fraction of compound that remains unbound (Fu) is calculated.

human plasma proteins = assay: Plasma protein binding by equilibrium dialysis, human plasma; format: in vitro ADME; conditions: human plasma, 5 μM, fraction unbound
Description: In assays to estimate binding of test compounds to plasma proteins, test compound solutions (5 μM) are prepared in buffer and species-specific plasma (final DMSO concentration 0.5%). The plasma-containing solution is added to one side of the membrane of an equilibrium dialysis system, and the plasma-free is added to the other side. Dialysis was allowed to reach equilibrium by incubation for two hours at 37° C. The concentration of compound on both sides of the membrane was measured using LC-MS/MS.

HIV-1RF = assay: Anti-HIV cytoprotection in CEM-SS cells infected with HIV-1RF (XTT); format: cell-based; conditions: six days, XTT; read-out: CEM-SS/HIV-1RF EC50 ± SD
Description: (§1) To evaluate whether conjugated protease inhibitors retain the ability to protect against HIV-1 infection, CEM-SS cells infected with the RF strain of HIV-1 were treated with test compounds for six days, and then cell viability was monitored using the tetrazolium dye XTT. […] A value for Therapeutic Index (TI) was calculated as TC50/EC50.

[2] = molecular target: recombinant HIV-1 protease (Human immunodeficiency virus type 1 group M subtype B (isolate HXB2) (HIV-1), UniProt P04585); assay: Enzyme inhibition of purified HIV-1 protease (SensoLyte 520 HIV-Protease Assay Kit); format: biochemical; conditions: read-out: IC50 ± SD
Description: Protease inhibitors (PI) are used to treat HIV infection by preventing viral assembly and maturation through the inhibition of HIV-1 protease activity. Biochemical assays were performed to evaluate the potential of PEG-PI conjugates to inhibit HIV-1 protease activity, relative to their respective PI parent molecules. Activity assays were performed at using the SensoLyte 520 HIV-Protease Assay Kit (Anaspec Inc., San Jose, Calif.) and recombinant HIV-1 protease. Protease activity was monitored by the formation of a fluorescent reporter product generated during HIV-1 protease-mediated digestion of a quenched, fluorimetric substrate containing the p17/p24 Pr^gag cleavage site.

CEM-SS cells = system: CEM-SS cells
Description: as §1

PBMCs [3] = assay: PBMC macromolecule synthesis (tritiated precursor incorporation); format: cell-based, human; conditions: for Thymidine Incorporation (PBMC) TC50: DNA synthesis; for Uridine Incorporation (PBMC) TC50: RNA synthesis; for Leucine Incorporation (PBMC) TC50: protein synthesis
Description: Cellular macromolecule synthesis was evaluated using tritiated precursor incorporation assays. PBMCs (5×10^4 cells/well) were cultured in the presence or absence of test compound for 7 days at 37 C, 5% CO2 in a 96-well microtiter plate. On day 6 of the incubation, 1 uCi of [methyl-3H]-thymidine for DNA synthesis, [5-3H]-uridine for RNA synthesis, or [3,4,5-3H]-leucine for protein synthesis was added to compound-treated cells, and the plate was further incubated for 16 hours. The cells were transferred to a glass fiber filtermat using an Inotech cell harvester. The filtermats were washed with distilled water then sealed in a bag with scintillation fluid. Incorporated radioactivity was measured using a Wallac scintillation counter.

PBMCs [4] = assay: PBMC cytotoxicity (XTT); format: cell-based, human; conditions: 7 days
Description: Mononuclear cells were isolated from fresh human peripheral blood cells by Ficoll-Hypaque density gradient by centrifugation at 600 g for 30 minutes. Banded peripheral blood mononuclear cells (PBMCs) were aspirated from the resulting interface and washed with phosphate buffered saline by low speed centrifugation. Cell viability was evaluated by Trypan Blue dye exclusion. […] Plates were incubated at 37° C., 5% CO2 for 7 days prior to cytotoxicity evaluation. XTT measurement for cytotoxicity.

human hepatocytes = assay: Metabolic stability in cryopreserved human hepatocytes; conditions: human hepatocytes, 3 uM, incubated up to one hour
Description: Metabolism of PI conjugates was investigated by monitoring the levels of unmetabolized parent compound following incubation with cryopreserved human or monkey hepatocytes. The use of whole hepatocytes rather than microsomes requires that the drugs cross the cell membrane to interact with intracellularly-localized metabolic enzymes, and thus provides the most relevant in vitro system for understanding overall metabolic stability of these compounds.
Test compounds (0.1 μM or 3 μM, as indicated) are incubated with cryopreserved human hepatocytes at a cell density of 0.5×10^6 viable cells/mL. […] Duplicate samples (50 μL) are removed from the incubation mixture at various timepoints up to four hours (for 0.1 μM test compound concentration), or one or two hours (for 3 μM test compound concentration), and the reaction is quenched by the addition of methanol containing internal standard (100 μL). The samples are centrifuged (2500 rpm at 4° C. for 20 min), and the supernatants at each time point pooled for cassette analysis by LC-MS/MS.

CYP3A4 = CYP3A4 (Homo sapiens (Human), UniProt P08684); assay: CYP450 inhibition in human liver microsomes: CYP3A4;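 further: incubation at 37 °C started by adding 1 mM NADPH, with formation of the probe metabolite measured via LC-MS/MS or fluorescent detection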
Sequence of CYP3A4 (P08684 whole entry): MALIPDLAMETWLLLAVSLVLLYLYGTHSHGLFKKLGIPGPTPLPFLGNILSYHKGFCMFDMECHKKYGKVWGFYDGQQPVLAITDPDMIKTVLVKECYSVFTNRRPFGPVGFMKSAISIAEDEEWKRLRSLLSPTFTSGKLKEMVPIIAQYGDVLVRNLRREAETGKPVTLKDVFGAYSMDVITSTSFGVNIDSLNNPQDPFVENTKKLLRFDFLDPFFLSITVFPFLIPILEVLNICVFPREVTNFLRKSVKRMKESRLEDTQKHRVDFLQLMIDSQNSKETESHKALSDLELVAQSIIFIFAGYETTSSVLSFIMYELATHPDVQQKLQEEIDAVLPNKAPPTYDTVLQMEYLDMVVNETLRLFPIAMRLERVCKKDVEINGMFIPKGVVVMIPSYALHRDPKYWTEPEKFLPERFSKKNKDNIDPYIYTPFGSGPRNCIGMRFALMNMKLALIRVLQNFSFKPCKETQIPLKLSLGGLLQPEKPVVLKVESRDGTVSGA

Caco-2 cells = assay: Bi-directional permeability in Caco-2 monolayers; conditions: for Efflux ratio (B→A/A→B): Caco-2 monolayers; for A→B, ×10^−6: human, Caco-2
Description: Absorption properties of various compounds were measured using bi-directional permeability assays in Caco-2 cells. […] The efflux ratio is calculated as the ratio of the Papp(B→A)/Papp(A→B).

[5] = read-out: CYP3A4 IC50 Midazolam, probe substrate midazolam
[6] = read-out: CYP3A4 IC50 Testosterone, probe substrate testosterone

Row | Compound | Microsomal Protein Binding Fu ± SD [1] | Plasma Protein Binding Fu ± SD (human plasma proteins) | EC50 (HIV-1RF) | IC50 [2] | CEM-SS TC50 ± SD (CEM-SS cells; absence of viral infection) | Thymidine Incorporation (PBMC) TC50 (PBMCs [3]) | Uridine Incorporation (PBMC) TC50 (PBMCs [3]) | Leucine Incorporation (PBMC) TC50 (PBMCs [3]) | XTT (PBMC) TC50 (PBMCs [4]) | CLint ± SEM (human hepatocytes) | IC50 (CYP3A4; [5]) | IC50 (CYP3A4; [6]) | Efflux ratio (B→A/A→B) (Caco-2 cells) | A→B, ×10^−6 (Caco-2 cells) | CEM-SS TC50 ± SD (CEM-SS cells)
1 | CCC(C1=C(O)CC(CCCNC(=O)OC)(CCc2ccccc2)OC1=O)c1cccc(NS(=O)(=O)c2ccc(C(F)(F)F)cn2)c1 (mixture of isomers) [mPEG0-OCO—NH-Tipranavir] | 0.887 ± 0.0749 | 0.0105 ± 0.00848 | 290 nM | 0.292 nM | 54300 nM | – | – | – | – | – | – | – | – | – | –
2 | CCC(C1=C(O)CC(CCCNC(=O)OCCOC)(CCc2ccccc2)OC1=O)c1cccc(NS(=O)(=O)c2ccc(C(F)(F)F)cn2)c1 (mixture of isomers) [mPEG1-OCO—NH-Tipranavir] | 0.85 ± 0.184 | 0.0145 ± 0.000403 | 120 nM | 0.188 nM | 49500 nM | – | – | – | – | – | – | – | – | – | –
3 | CCC(C1=C(O)CC(CCCNC(=O)OCCOCCOCCOC)(CCc2ccccc2)OC1=O)c1cccc(NS(=O)(=O)c2ccc(C(F)(F)F)cn2)c1 (mixture of isomers) [mPEG3-OCO—NH-Tipranavir] | 0.816 ± 0.0104 | 0.0292 ± 0.000428 | 870 nM | 0.617 nM | 67600 nM | – | – | – | – | – | – | – | – | – | –
4 | CCC(C1=C(O)CC(CCCNC(=O)OCCOCCOCCOCCOCCOC)(CCc2ccccc2)OC1=O)c1cccc(NS(=O)(=O)c2ccc(C(F)(F)F)cn2)c1 (mixture of isomers) [mPEG5-OCO—NH-Tipranavir] | highly unbound | 0.0304 ± 0.000274 | 1060 nM | 0.462 nM | 86100 nM | – | – | – | – | – | – | – | – | – | –
5 | C[S+](C)[O-] [DMSO, reference compound] | – | – | – | – | – | >2.0% | 0.06% | 0.19% | >2.0% | – | – | – | – | – | –
6 | COCCOCCOCCOCCOCCOC(=O)N[C@@H](C(=O)NC(Cc1ccccc1)[C@@H](O)CN(Cc1ccc(-c2ccccn2)cc1)NC(=O)[C@H](NC(=O)OCCOCCOCCOCCOCCOC)C(C)(C)C)C(C)(C)C (some centres unmarked) [di-mPEG5-Atazanavir] | highly unbound | 0.537 ± 0.0412 | 1110 nM | 17.3 nM | – | – | – | – | – | 0.824 ± 0.950 μL/min/10^6 cells | > 50000 nM | > 50000 nM | >10.8 | 0.06 cm/s | >200000 nM
7 | COCCOCCOCCOCCOCCOCCOC(=O)N[C@@H](C(=O)NC(Cc1ccccc1)[C@@H](O)CN(Cc1ccc(-c2ccccn2)cc1)NC(=O)[C@H](NC(=O)OCCOCCOCCOCCOCCOCCOC)C(C)(C)C)C(C)(C)C (some centres unmarked) [di-mPEG6-Atazanavir] | highly unbound | 0.868 ± 0.0163 | 2540 nM | 15.6 nM | – | – | – | – | – | – | – | – | – | – | 158600 nM
8 | COCCOCCOCCOCCOCCOCCOCCOC(=O)N[C@@H](C(=O)NC(Cc1ccccc1)[C@@H](O)CN(Cc1ccc(-c2ccccn2)cc1)NC(=O)[C@H](NC(=O)OCCOCCOCCOCCOCCOCCOCCOC)C(C)(C)C)C(C)(C)C (some centres unmarked) [di-mPEG7-Atazanavir] | highly unbound | highly unbound | 8350 nM | 10.9 nM | – | – | – | – | – | – | > 50000 nM | > 50000 nM | >3.6 | 0.06 cm/s | >200000 nM
9 | CCCC1(CCc2ccccc2)CC(O)=C(C(CC)c2cccc(N(CCOCCOCCOC)S(=O)(=O)c3ccc(C(F)(F)F)cn3)c2)C(=O)O1 (centres unmarked) [mPEG3-amide-Tipranavir] | 0.73 ± 0.0153 | 0.014 ± 0.00166 | 80 nM | – | – | – | – | – | – | 1.66 ± 1.24 μL/min/10^6 cells | 2500 nM | ~2100 nM | – | – | 1300 nM
10 | CCCC1(CCc2ccccc2)CC(O)=C(C(CC)c2cccc(N(CCOCCOCCOCCOCCOC)S(=O)(=O)c3ccc(C(F)(F)F)cn3)c2)C(=O)O1 (centres unmarked) [mPEG5-amide-Tipranavir] | highly unbound | 0.0308 ± 0.00399 | > 200000 nM | – | – | – | – | – | – | 3.62 ± 0.527 μL/min/10^6 cells | 1700 nM | 2800 nM | – | – | 12800 nM
11 | CCC[C@@]1(CCc2ccccc2)CC(O)=C([C@H](CC)c2cccc(N(CCOCCOCCOCCOCCOCCOCCOC)S(=O)(=O)c3ccc(C(F)(F)F)cn3)c2)C(=O)O1 [mPEG7-amide-Tipranavir] | highly unbound | 0.029 ± 0.00436 | > 200000 nM | 12.2 nM | – | – | – | – | – | 0.162 ± 0.343 μL/min/10^6 cells | 2600 nM | ~4000 nM | – | – | 14500 nM
12 | Triton X-100 [reference compound] | – | – | – | – | – | 0.002% | 0.0009% | 0.0006% | 0.003% | – | – | – | – | – | –
